Data from patent US20100137315A1, “Sphingosine Kinase Inhibitors and Methods of Their Use” (APOGEE BIOTECHNOLOGY CORPORATION, priority 2005, published 2010).

Target: T1, recombinant human SK (Homo sapiens, UniProt Q9NYA1)
T1 construct: glutathione-S-transferase (GST) (N); made in house; host or cells: bacteria (pGEX vector)
Experiment: Inhibition of recombinant human SK, LC/MS/MS assay
Format: biochemical
Details: 6 μg/ml compound
Procedure: An assay for identifying inhibitors of recombinant human SK has been established (French et al., 2003, Cancer Res 63: 5962). cDNA for human SK was subcloned into a pGEX bacterial expression vector, which results in expression of the enzyme as a fusion protein with glutathione-S-transferase, and the fusion protein is then purified on a column of immobilized glutathione. SK activity is measured by incubation of the recombinant SK with [^3H]sphingosine and 1 mM ATP under defined conditions, followed by extraction of the assay mixture with chloroform:methanol under basic conditions. […] Radioactivity in aliquots of the aqueous phase is then quantified as a measure of [^3H]S1P formation. There is a low background level of partitioning of [^3H]sphingosine into the aqueous phase, and addition of the recombinant SK greatly increases the formation of [^3H]S1P.
In an alternate assay procedure, the recombinant human SK was incubated with unlabeled sphingosine and ATP as described above. After 30 minutes, the reactions were terminated by the addition of acetonitrile to directly extract the newly synthesized S1P. The amount of S1P in the samples is then quantified as follows. C17 base D-erythro-sphingosine and C17 S1P are used as internal standards for sphingosine and S1P, respectively. These seventeen-carbon fatty acid-linked sphingolipids are not naturally produced, making these analogs excellent standards. The lipids are then fractionation by High-Performance Liquid Chromatography using a C8-reverse phase column eluted with 1 mM methanolic ammonium formate/2 mM aqueous ammonium formate. A Finnigan LCQ Classic LC-MS/MS is used in the multiple reaction monitoring positive ionization mode to acquire ions at m/z of 300 (precursor ion)→282 (product ion) for sphingosine and 380→264 for S1P. Calibration curves are generated by plotting the peak area ratios of the synthetic standards for each sphingolipid, and used to determine the normalized amounts of sphingosine and S1P in the samples.
Each Compound of this invention was tested for its ability to inhibit recombinant SK using the LC/MS/MS assay described above. Typically, the Compounds were individually dissolved in dimethylsulfoxide and tested at a final concentration of 6 micrograms/ml.

T1 sequence (Q9NYA1 whole entry): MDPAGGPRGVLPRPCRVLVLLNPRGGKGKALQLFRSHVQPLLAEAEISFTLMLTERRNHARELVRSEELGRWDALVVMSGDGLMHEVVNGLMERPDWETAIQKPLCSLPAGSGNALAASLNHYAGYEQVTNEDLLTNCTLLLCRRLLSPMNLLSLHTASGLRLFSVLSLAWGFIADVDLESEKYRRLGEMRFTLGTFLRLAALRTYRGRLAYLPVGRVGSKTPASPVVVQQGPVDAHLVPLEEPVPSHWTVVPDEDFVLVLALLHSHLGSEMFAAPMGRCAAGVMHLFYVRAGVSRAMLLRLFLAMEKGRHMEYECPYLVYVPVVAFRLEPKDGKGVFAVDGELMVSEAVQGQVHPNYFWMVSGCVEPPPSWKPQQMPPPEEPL

Row | inhibition at 6 µg/mL [%] | Compound
1 | 36 | CCCC(=O)Oc1ccc(C=CC(=O)Nc2nc(-c3ccc(C)cc3)cs2)cc1OC [Compound 19, Butyric acid 2-methoxy-4-[2-(4-p-tolyl-thiazol-2-ylcarbamoyl)-vinyl]-phenyl ester]
2 | 6 | CCCC(=O)Oc1ccc(C=CC(=O)Nc2nc(-c3ccc(Br)cc3)cs2)cc1OC [Compound 20, Butyric acid 4-{2-[4-(4-bromo-phenyl)-thiazol-2-ylcarbamoyl]-vinyl}-2-methoxy-phenyl ester]
3 | 26 | O=C(C=Cc1ccc2c(c1)OCO2)Nc1nc(-c2ccc(Cl)cc2)cs1 [Compound 21, 3-Benzo[1,3]dioxol-5-yl-N-[4-(4-chloro-phenyl)-thiazol-2-yl]-acrylamide]
4 | 34 | O=C(Cc1ccc2c(c1)OCO2)Nc1nc(-c2ccc(Cl)cc2)cs1 [Compound 22, 2-Benzo[1,3]dioxol-5-yl-N-[4-(4-chloro-phenyl)-thiazol-2-yl]-acetamide]
5 | 45 | COc1ccc(CCC(=O)Nc2nc(-c3ccc(Cl)cc3)cs2)cc1OC [Compound 23, N-[4-(4-Chloro-phenyl)-thiazol-2-yl]-3-(3,4-dimethoxy-phenyl)-propionamide]
6 | 0 | CCCC(=O)Oc1ccc(C(=O)Nc2nc(-c3ccc(Cl)cc3)cs2)cc1OC [Compound 24, Butyric acid 4-[4-(4-chloro-phenyl)-thiazol-2-ylcarbamoyl]-2-methoxy-phenyl ester]
7 | 0 | CCCC(=O)Oc1ccc(C(=O)Nc2nc(-c3ccc(Cl)cc3)cs2)cc1OC(=O)CCC [Compound 25, Butyric acid 2-butyryloxy-4-[4-(4-chloro-phenyl)-thiazol-2-ylcarbamoyl]-phenyl ester]
8 | 0 | CCCC(=O)Oc1ccc(CCC(=O)Nc2nc(-c3ccc(Cl)cc3)cs2)cc1OC(=O)CCC [Compound 26, Butyric acid 2-butyryloxy-4-{2-[4-(4-chloro-phenyl)-thiazol-2-ylcarbamoyl]-ethyl}-phenyl ester]
9 | 87 | CCCC(=O)Oc1ccc(C=CC(=O)Nc2nc(-c3ccc(F)cc3)cs2)cc1OC [Compound 28, Butyric acid 4-{2-[4-(4-fluoro-phenyl)-thiazol-2-ylcarbamoyl]-vinyl}-2-methoxy-phenyl ester]
10 | 58 | CCCC(=O)Oc1ccc(CC(=O)Nc2nc(-c3ccc(Cl)cc3)cs2)cc1N [Compound 31, Butyric acid 2-amino-4-{[4-(4-chloro-phenyl)-thiazol-2-ylcarbamoyl]-methyl}-phenyl ester]
11 | 14 | O=C(NCc1cc(F)cc(F)c1)c1nc(-c2ccc(Cl)cc2)cs1 [Compound 36, 4-(4-Chloro-phenyl)-thiazole-2-carboxylic acid 3,5-difluoro-benzylamide]
12 | 23 | O=C(NCc1ccc(Cl)c(C(F)(F)F)c1)c1nc(-c2ccc(Cl)cc2)cs1 [Compound 37, 4-(4-Chloro-phenyl)-thiazole-2-carboxylic acid 4-chloro-3-trifluoromethyl-benzylamide]
13 | 75 | O=C(NCc1ccc(F)cc1Cl)c1nc(-c2ccc(Cl)cc2)cs1 [Compound 38, 4-(4-Chloro-phenyl)-thiazole-2-carboxylic acid 2-chloro-4-fluoro-benzylamide]
14 | 69 | O=C(NCc1ccc(F)c(Cl)c1)c1nc(-c2ccc(Cl)cc2)cs1 [Compound 39, 4-(4-Chloro-phenyl)-thiazole-2-carboxylic acid 3-chloro-4-fluoro-benzylamide]
15 | 56 | O=C(NCc1ccc(F)c(F)c1)c1nc(-c2ccc(Cl)cc2)cs1 [Compound 40, 4-(4-Chloro-phenyl)-thiazole-2-carboxylic acid 3,4-difluoro-benzylamide]
16 | 22 | COc1ccc(CCNC(=O)c2nc(-c3ccc(Cl)cc3)cs2)cc1Br [Compound 41, 4-(4-Chloro-phenyl)-thiazole-2-carboxylic acid [2-(3-bromo-4-methoxy-phenyl)-ethyl]-amide]
17 | 79 | O=C(NCc1cc(F)c(F)c(F)c1)c1nc(-c2ccc(Cl)cc2)cs1 [Compound 42, 4-(4-Chloro-phenyl)-thiazole-2-carboxylic acid 3,4,5-trifluoro-benzylamide]
18 | 59 | O=C(NCc1cccc(OC(F)(F)F)c1)c1nc(-c2ccc(Cl)cc2)cs1 [Compound 43, 4-(4-Chloro-phenyl)-thiazole-2-carboxylic acid 3-trifluoromethoxy-benzylamide]

Row | inhibition at 6 µg/mL [%] | Compound
19 | 69 | O=C(NCCc1cccc(Oc2ccccc2)c1)c1nc(-c2ccc(Cl)cc2)cs1 [Compound 44, 4-(4-Chloro-phenyl)-thiazole-2-carboxylic acid [2-(3-phenoxy-phenyl)-ethyl]-amide]
20 | 42 | CN1CCCC1CCNC(=O)c1nc(-c2ccc(Cl)cc2)cs1 (stereo not drawn) [Compound 45, 4-(4-Chloro-phenyl)-thiazole-2-carboxylic acid [2-(1-methyl-pyrrolidin-2-yl)-ethyl]-amide]
21 | 80 | CN1CCN(NC(=O)c2nc(-c3ccc(Cl)cc3)cs2)CC1 [Compound 46, 4-(4-Chloro-phenyl)-thiazole-2-carboxylic Acid (4-methyl-piperazin-1-yl)-amide]
22 | 21 | O=C(CCc1ccc(F)cc1F)Nc1nc(-c2ccc(Cl)cc2)cs1 [Compound 47, N-[4-(4-Chloro-phenyl)-thiazol-2-yl]-3-(2,4-difluoro-phenyl)-propionamide]
23 | 56 | CCSCCNC(=O)c1nc(-c2ccc(Cl)cc2)cs1 [Compound 48, 4-(4-Chloro-phenyl)-thiazole-2-carboxylic Acid (2-ethylsulfanyl-ethyl)-amide]
24 | 67 | O=C(NCc1ccc(C(F)(F)F)cc1F)c1nc(-c2ccc(Cl)cc2)cs1 [Compound 49, 4-(4-Chloro-phenyl)-thiazole-2-carboxylic Acid 2-fluoro-4-trifluoromethyl-benzylamide]
25 | 21 | O=C(Nc1cc(F)cc(F)c1)c1nc(-c2ccc(Cl)cc2)cs1 [Compound 50, 4-(4-Chloro-phenyl)-thiazole-2-carboxylic Acid (3,5-difluoro-phenyl)-amide]
26 | 36 | CSc1ccc(CNC(=O)c2nc(-c3ccc(Cl)cc3)cs2)cc1 [Compound 51, 4-(4-Chloro-phenyl)-thiazole-2-carboxylic Acid 4-methylsulfanyl-benzylamide]
27 | 78 | O=C(NCc1ccc(OC(F)(F)F)cc1)c1nc(-c2ccc(Cl)cc2)cs1 [Compound 52, 4-(4-Chloro-phenyl)-thiazole-2-carboxylic Acid 4-trifluoromethoxy-benzylamide]
28 | 44 | O=C(NCc1ccc(F)c(C(F)(F)F)c1)c1nc(-c2ccc(Cl)cc2)cs1 [Compound 53, 4-(4-Chloro-phenyl)-thiazole-2-carboxylic Acid 4-fluoro-3-trifluoromethyl-benzylamide]
29 | 25 | O=C(NCc1ccc(Oc2ccccc2)cc1)c1nc(-c2ccc(Cl)cc2)cs1 [Compound 54, 4-(4-Chloro-phenyl)-thiazole-2-carboxylic Acid 4-phenoxy-benzylamide]
30 | 20 | O=C(NCc1ccc(-c2ccccc2)cc1)c1nc(-c2ccc(Cl)cc2)cs1 [Compound 55, 4-(4-Chloro-phenyl)-thiazole-2-carboxylic Acid (biphenyl-4-ylmethyl)-amide]
31 | 81 | CC(NC(=O)c1nc(-c2ccc(Cl)cc2)cs1)c1ccc(Cl)cc1 (stereo not drawn) [Compound 56, 4-(4-Chloro-phenyl)-thiazole-2-carboxylic Acid [1-(4-chloro-phenyl)-ethyl]-amide]
32 | 16 | CC(C)(C)NCCCNC(=O)c1nc(-c2ccc(Cl)cc2)cs1 [Compound 57, 4-(4-Chloro-phenyl)-thiazole-2-carboxylic Acid (3-tert-butylamino-propyl)-amide]
33 | 86 | O=C(NCc1ccc(C(F)(F)F)cc1)c1nc(-c2ccc(Cl)cc2)cs1 [Compound 58, 4-(4-Chloro-phenyl)-thiazole-2-carboxylic Acid 4-trifluoromethyl-benzylamide]
34 | 46 | O=C(NCCCN1CCCC1)c1nc(-c2ccc(Cl)cc2)cs1 [Compound 59, 4-(4-Chloro-phenyl)-thiazole-2-carboxylic Acid (3-pyrrolidin-1-yl-propyl)-amide]
35 | 87 | O=C(NCc1cc(C(F)(F)F)cc(C(F)(F)F)c1)c1nc(-c2ccc(Cl)cc2)cs1 [Compound 60, 4-(4-Chloro-phenyl)-thiazole-2-carboxylic Acid 3,5-bis-trifluoromethyl-benzylamide]
36 | 0 | O=C(NCCc1ccncc1)c1nc(-c2ccc(Cl)cc2)cs1 [Compound 61, 4-(4-Chloro-phenyl)-thiazole-2-carboxylic Acid (2-pyridin-4-yl-ethyl)-amide]
